Experimental data as given in patent publication US20040242463A1, “Compositions for stabilizing oxygen-labile species” (priority 1999, published 2004).

Test: Stability of formulations containing retinol, ascorbic acid and/or tocopherol, HPLC assay
Type: physicochemical
Description: The stability of different formulations containing retinol, ascorbic acid and/or tocopherol as set forth in Examples 7 and 8 below were monitored in terms of appearance and HPLC assay. The degraded products of retinol, ascorbic acid or tocopherol are yellow or brownish in color. The freshly prepared samples were white creams. Discoloration to yellow or brown indicates the instability.

Effect of addition on the stability of retinol and tocopherol | Effect on stability of tocopherol | SMILES
slightly enhances | – | CC(=O)N[C@@H](CS)C(=O)O [N-acetlcysteine, N-acetylcysteine]
– | assists in stabilizing tocopherol | O=C1O[C@H]([C@@H](O)CO)C(O)=C1O [ascorbic acid]
